What is called Kd is the free concentration of one partner at which half of the binding sites on the other are occupied at equilibrium, for simple one-to-one binding. Low readings indicate tighter binding, high ones weaker binding. What is called bioavailability is dose-corrected exposure relative to a reference, in per cent. A low value points to poor availability. As usually defined, the CL/F is clearance divided by bioavailability, as obtained after extravascular dosing.

Series [1] deals with Somatostatin receptor type 1 (Rattus norvegicus, UniProt P28646). Briefly: Displacement of [125I]SRIF14 from rat sst1 receptor from rat brain cortex membrane.
Chain of Somatostatin receptor type 1 (P28646 whole entry): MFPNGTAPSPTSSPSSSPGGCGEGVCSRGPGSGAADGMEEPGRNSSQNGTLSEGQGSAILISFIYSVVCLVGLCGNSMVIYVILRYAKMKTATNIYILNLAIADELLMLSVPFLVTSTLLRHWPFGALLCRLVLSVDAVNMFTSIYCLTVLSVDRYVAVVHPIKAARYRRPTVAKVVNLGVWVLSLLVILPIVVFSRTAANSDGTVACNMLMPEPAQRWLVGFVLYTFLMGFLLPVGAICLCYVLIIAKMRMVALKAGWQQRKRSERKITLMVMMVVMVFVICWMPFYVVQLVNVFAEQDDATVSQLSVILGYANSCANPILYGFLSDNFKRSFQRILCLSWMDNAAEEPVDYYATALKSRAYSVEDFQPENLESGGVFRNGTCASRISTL
Series [2] deals with Rattus norvegicus. Briefly: Volume of distribution at steady state in rat at 10 mg/kg, po. It is filed as ADME, organism-based. Details: dose 10 mg/kg, route oral. The conditions noted are these: in vivo.
The species entered for series [3] is Rattus norvegicus. Briefly: Selectivity for rat sst1 receptor over rat sst2 receptor.
Series [4] can be described thus: Ratio of drug level in brain to plasma in rat at 10 to 100 mg/kg, po after 90 mins. It is filed as ADME, organism-based. Details: dose 10-100 mg/kg, route oral. The following applies: brain and plasma, read-out: BPR.
Series [5] addresses Somatostatin receptor type 2 (Rattus norvegicus, UniProt P30680). The series can be described thus: Displacement of [125I]SRIF14 from rat sst2 receptor from rat brain cortex membrane. Background: Loss of bound radioactivity is the signal in a displacement assay; it reports binding, not function.
The nature of series [6]: Oral bioavailability in rat at 10 mg/kg. It is filed as ADME, organism-based. The following applies: in vivo.
Series [7] is described as follows: Clearance in rat at 10 mg/kg, po. The class given is ADME, organism-based. Details: dose 10 mg/kg, route oral. The conditions noted are these: in vivo.
Series [8] is described as follows: Ratio of drug level in brain to plasma in mouse at 10 mg/kg, po after 1 hr. It is filed as ADME, organism-based. Details: dose 10 mg/kg, route oral. The following applies: brain and plasma, read-out: BPR.

Chain of Somatostatin receptor type 2 (P30680 whole entry): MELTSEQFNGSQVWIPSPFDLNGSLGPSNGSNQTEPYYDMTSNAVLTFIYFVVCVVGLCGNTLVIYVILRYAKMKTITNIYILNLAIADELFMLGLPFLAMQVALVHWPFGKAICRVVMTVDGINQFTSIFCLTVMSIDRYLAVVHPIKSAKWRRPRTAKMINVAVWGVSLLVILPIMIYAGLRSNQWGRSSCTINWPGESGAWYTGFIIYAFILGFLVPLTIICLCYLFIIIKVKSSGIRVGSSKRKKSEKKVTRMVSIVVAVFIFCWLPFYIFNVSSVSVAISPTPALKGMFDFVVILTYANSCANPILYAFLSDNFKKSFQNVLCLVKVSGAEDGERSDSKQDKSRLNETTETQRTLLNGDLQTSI

Consider `COc1cccc2c1C[C@H]1C[C@@H](C(=O)N3CCN(c4ccc([N+](=O)[O-])cc4)CC3)CN(C)[C@@H]1C2` [OBELIN], for which the Kd is 0.000708 µM in series [1] and 7.76 µM in series [5]. In addition, the Vdss in series [2] stood at 3 L/kg. Also, in series [3], the Selectivity ratio was more than 10000. Besides, the Kp at 1.5 h in series [4] was determined as 10. The bioavailability in series [6] amounted to 35%. Moreover, the CL/F in series [7] is 5 mL/min.
As to `COc1cccc2c1C[C@H]1C[C@@H](C(=O)N3CCN(c4ccc(F)c(F)c4)CC3)CN(C)[C@@H]1C2`, the equilibrium dissociation constant (Kd) is 0.000741 µM in series [1] and 16.6 µM in series [5]. Further, in series [8], the Kp at 1 h was 7.5. For the same molecule, the Selectivity ratio in series [3] was more than 22000.
